The values that follow come from paper PMC7827085 (Pharmaceutics, 2021).

The subject of data set [1] is SARS-CoV-2. The following applies: cited from earlier work.
Data set [2] deals with T1, ABCB1/MDR1/Pgp (Homo sapiens, UniProt P08183). Conditions: read-out: Estimated Transporter Inhibition IC50, ABCB1 vesicular assay; ATP-dependent NMQ uptake, HEK-293/ABCB1 inverted membrane vesicles; '-' = no inhibition.
Data set [3] addresses T2, OATP2B1 (Homo sapiens, UniProt O94956).
T2 sequence (O94956 1-709): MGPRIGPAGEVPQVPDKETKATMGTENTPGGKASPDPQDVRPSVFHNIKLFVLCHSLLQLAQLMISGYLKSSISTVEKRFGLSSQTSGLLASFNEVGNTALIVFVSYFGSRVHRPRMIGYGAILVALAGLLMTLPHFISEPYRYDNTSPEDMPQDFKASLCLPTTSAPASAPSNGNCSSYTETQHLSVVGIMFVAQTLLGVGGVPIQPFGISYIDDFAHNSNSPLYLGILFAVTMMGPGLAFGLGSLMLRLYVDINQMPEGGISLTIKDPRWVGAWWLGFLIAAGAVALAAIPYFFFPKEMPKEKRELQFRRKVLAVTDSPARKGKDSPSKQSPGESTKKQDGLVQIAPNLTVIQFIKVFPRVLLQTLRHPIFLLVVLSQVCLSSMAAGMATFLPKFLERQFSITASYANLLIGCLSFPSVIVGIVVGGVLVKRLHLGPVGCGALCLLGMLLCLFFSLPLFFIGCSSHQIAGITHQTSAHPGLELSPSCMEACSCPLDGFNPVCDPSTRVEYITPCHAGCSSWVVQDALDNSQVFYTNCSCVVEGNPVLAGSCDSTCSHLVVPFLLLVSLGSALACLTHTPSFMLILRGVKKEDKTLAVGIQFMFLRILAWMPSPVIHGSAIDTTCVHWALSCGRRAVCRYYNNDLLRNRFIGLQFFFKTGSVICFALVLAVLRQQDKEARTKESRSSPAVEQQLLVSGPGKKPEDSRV
Conditions: read-out: Estimated Transporter Inhibition IC50, OATP2B1 cellular assay; 20 µM pyranine uptake, 15 min, pH 5.5, A431-OATP2B1 cells; '-' = no interaction.

Data set [4] deals with T3, ABCG2/BCRP (Homo sapiens, UniProt Q9UNQ0).
T3 sequence (Q9UNQ0 1-655): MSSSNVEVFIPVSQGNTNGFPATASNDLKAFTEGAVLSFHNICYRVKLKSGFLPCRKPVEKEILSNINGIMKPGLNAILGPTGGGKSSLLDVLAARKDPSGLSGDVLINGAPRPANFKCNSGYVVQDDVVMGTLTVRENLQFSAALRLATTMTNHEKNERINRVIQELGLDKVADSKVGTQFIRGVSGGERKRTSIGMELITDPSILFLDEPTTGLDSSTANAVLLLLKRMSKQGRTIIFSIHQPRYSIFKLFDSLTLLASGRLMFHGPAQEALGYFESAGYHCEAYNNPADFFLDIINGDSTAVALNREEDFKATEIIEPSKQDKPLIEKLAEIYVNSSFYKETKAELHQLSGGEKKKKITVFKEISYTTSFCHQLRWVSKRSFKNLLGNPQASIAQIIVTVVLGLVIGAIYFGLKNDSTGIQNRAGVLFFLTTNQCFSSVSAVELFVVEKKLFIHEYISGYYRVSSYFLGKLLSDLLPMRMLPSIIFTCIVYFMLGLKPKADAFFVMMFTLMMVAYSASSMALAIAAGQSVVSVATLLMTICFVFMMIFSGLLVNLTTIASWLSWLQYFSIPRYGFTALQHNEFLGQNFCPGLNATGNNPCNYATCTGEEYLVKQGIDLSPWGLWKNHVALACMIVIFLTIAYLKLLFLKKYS
Nature of the data set: in vitro. Conditions: read-out: Estimated Transporter Inhibition IC50, ABCG2 vesicular assay; ATP-dependent lucifer yellow uptake, HEK-293/ABCG2 vesicles; relative to 1 µM Ko143; '-' = no inhibition. As for the experimental part: These were employed at 37 °C for 10 min (ABCG2), 1 min (ABCB1), or 3 min (ABCC1), with or without 4 mM Mg-ATP, in a 50 μL final volume. The known reference inhibitors of the transporters (1 µM Ko143 for ABCG2, 1 µM Valspodar for ABCB1, and 200 µM Benzbromarone for ABCC1) served as controls. Each test compound was dissolved in DMSO and a 1 µL volume was added to the samples. After incubation, the samples were filtered and washed, and the substrates in the vesicles were dissolved in 10% SDS and transferred onto another plate. After the addition of a stabilizer, the fluorescence was measured in plate readers (Victor X3 and Enspire Perkin-Elmer, Waltham, MA, USA), while the activity of the radiolabeled substrate was measured by liquid scintillation counting (Perkin Elmer MicroBeta2 liquid scintillation counter, Perkin Elmer, Waltham, MA, USA). ABC transporter-related vesicular transport was calculated by subtracting uptake measured in the presence of Mg-AMP from the values measured in the presence of Mg-ATP.
The effects of the test compounds on ABCG2 activity were also measured in a vesicular transport assay by using inverted membrane vesicles prepared from HEK-293 cells expressing high levels of the ABCG2 transporter.

The target of data set [5] is T3, ABCG2/BCRP. Kind of data set: in vitro. The following applies: read-out: Estimated Transporter Inhibition IC50, ABCG2 cellular assay; PhenGreen-DA extrusion, PLB-985/ABCG2 cells; relative to 2.5 µM Ko143; '-' = no inhibition. Here is the method:
(§1) For the ABC transporter assays, we used both cell-based and membrane-based functional assays. […] The respective transport activities were assayed by measuring the cellular fluorescence of the respective transported substrates Phengreen (ABCG2) and Calcein (ABCB1 and ABCC1).
(§2) The cells were kept on ice until the flow cytometry measurements. All experiments were performed in triplicate and in at least three biological parallels. […] The PhenGreen (PG) or Calcein signal was detected in the BL1 channel (emission filter: 530/30 nm). Analysis of the data was carried out by the Attune Nxt Cytometer Software v3.1.2 (Thermo Fischer Scientific, Waltham, MA, USA). The inhibition of transporter activity was calculated by comparing the fluorescence in the presence of the test compound to that in the presence of a specific inhibitor providing maximum inhibition. […] Half-maximum inhibition (IC50) values were calculated by using the Origin2019 software (9.6.5.169, OriginLab Corporation, Northampton, MA, USA). […] In these experiments, we measured Hoechst dye extrusion in HeLa cells stably expressing eGFP and the ABCG2 variants driven by the same promoter—the transgenic cells generated by the Sleeping Beauty transposon system. […] For details, see Zámbó et al.). […] The maximum inhibition was defined for each variant as the fluorescence difference of the samples incubated with and without Ko143, respectively. […] Data analysis was performed using the Attune Nxt Cytometer Software v3.1.2. Two samples per condition and three biological replicates were examined in each experiment.
Here, we used both PhenGreen-SK diacetate and Hst dye for these measurements. The PhenGreen (PG) assay is a recently patented method applied for ensuring an efficient ABCG2 transport measurement, as the non-fluorescent PhenGreen diacetate (PG-DA) is actively extruded by ABCG2 and the cellular fluorescence is correlated with ABCG2 transport activity. Therefore, we applied this assay to characterize the test drug interactions in intact PLB-985 cells expressing high levels of the ABCG2 protein. […] ABCG2 inhibition by the test compounds was estimated by their relative (%) inhibition compared to full inhibition by Ko143.

Data set [6] addresses T1, ABCB1/MDR1/Pgp. Nature of the data set: in vitro. The following applies: read-out: Estimated Transporter Inhibition IC50, ABCB1 cellular assay; Calcein-AM extrusion, PLB-985/ABCB1 cells; relative to full inhibition by 0.25 µM tariquidar; '-' = no significant inhibition. Here is the method:
as §1
The cells were kept on ice until the flow cytometry measurements. All experiments were performed in triplicate and in at least three biological parallels.
as §2
ABCB1 is a high-affinity active efflux transporter of the viability dye Calcein-AM (CaAM). […] Here, we applied this widely used cellular assay (see https://www.solvobiotech.com/services/categories/dye-efflux-assays) to characterize drug interactions of the applied compounds in intact PLB-985 cells, expressing high levels of the ABCB1 protein.

Data set [7] concerns OATP2B1. On the set-up: method as in PMID 22541068. Conditions: 20 µM ivermectin, different test substrate; cited from earlier work.

pIC50: −log10 of the molar value. Like-named read-outs stand apart in the source and are kept apart here.

T1 sequence (P08183 whole entry): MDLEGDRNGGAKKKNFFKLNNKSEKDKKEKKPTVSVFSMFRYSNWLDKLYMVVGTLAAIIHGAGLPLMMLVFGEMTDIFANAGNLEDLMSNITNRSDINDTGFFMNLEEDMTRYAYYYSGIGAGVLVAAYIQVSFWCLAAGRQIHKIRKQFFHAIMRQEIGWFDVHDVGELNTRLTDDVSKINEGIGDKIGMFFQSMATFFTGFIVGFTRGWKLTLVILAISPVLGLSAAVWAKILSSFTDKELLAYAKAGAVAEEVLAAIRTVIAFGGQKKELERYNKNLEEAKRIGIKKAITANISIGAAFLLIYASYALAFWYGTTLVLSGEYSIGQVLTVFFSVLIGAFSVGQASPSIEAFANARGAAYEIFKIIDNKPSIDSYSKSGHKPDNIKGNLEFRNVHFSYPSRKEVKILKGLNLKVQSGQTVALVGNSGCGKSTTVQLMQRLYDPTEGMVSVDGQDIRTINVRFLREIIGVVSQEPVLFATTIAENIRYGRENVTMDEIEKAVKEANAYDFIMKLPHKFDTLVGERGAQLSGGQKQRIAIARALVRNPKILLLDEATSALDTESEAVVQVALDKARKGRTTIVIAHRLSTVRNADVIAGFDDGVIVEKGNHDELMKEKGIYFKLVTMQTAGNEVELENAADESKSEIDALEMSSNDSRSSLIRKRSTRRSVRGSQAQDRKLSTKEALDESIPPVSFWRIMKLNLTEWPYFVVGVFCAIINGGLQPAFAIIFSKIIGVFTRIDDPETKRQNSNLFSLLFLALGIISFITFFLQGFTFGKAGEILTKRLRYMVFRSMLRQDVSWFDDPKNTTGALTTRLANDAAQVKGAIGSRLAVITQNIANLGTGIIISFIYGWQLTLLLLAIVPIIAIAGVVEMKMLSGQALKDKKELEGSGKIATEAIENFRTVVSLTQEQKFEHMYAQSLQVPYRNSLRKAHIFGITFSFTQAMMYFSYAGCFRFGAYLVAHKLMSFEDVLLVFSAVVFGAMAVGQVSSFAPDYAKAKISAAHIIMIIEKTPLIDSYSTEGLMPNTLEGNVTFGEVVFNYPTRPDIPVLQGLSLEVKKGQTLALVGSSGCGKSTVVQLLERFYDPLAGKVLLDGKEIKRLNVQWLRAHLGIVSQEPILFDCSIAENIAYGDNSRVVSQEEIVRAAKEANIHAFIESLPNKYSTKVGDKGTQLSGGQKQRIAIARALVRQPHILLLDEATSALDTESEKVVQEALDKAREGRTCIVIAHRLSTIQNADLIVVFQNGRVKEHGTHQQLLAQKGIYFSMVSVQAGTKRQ

The term pIC50 denotes the negative decadic logarithm of the IC50, by convention in mol/L. Take ivermectin: the “Plasma concentrations required to reach an in vitro antiviral efficacy” value in data set [1] is 2 to 10 µM. In addition, the negative-log IC50 (pIC50) in data set [2] is 6.52; in data set [3], 5.07; in data set [4], 5.96; in data set [5], 5.51; in data set [6] it was 6.22. Besides, the “OATP2B1 inhibition found by Karlgren et al.” value in data set [7] is 39%.
